Results taken from ChEMBL document CHEMBL1201862, “PubChem BioAssay data set” (2004).
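Assay format: 96-well plates, 48-hour exposure. GI50 marks 50% less growth.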 Active and inactive are the calls of the source. Rule as the data show it: active = GI50 up to about 1.1 µM and inactive = higher.

Legend:
Assay in all cases: growth of human tumour cells (NCI), 48 h
HCT-15 = tested on: HCT-15
HOP-92 = tested on: HOP-92
A549 = tested on: A549
COLO 205 = tested on: COLO 205
SW-620 = tested on: SW-620
IGROV-1 = tested on: IGROV-1
CAKI-1 = tested on: CAKI-1
RPMI-8226 = tested on: RPMI-8226
NCI-H522 = tested on: NCI-H522
SN12C = tested on: SN12C
U-251 = tested on: U-251
OVCAR-8 = tested on: OVCAR-8
UO-31 = tested on: UO-31
MOLT-4 = tested on: MOLT-4
PC-3 = tested on: PC-3
NCI/ADR-RES = tested on: NCI/ADR-RES
MCF7 = tested on: MCF7
BT-549 = tested on: BT-549
786-0 = tested on: 786-0
T47D = tested on: T47D

| SMILES | GI50 (HCT-15) | GI50 (HOP-92) | GI50 (A549) | GI50 (COLO 205) | GI50 (SW-620) | GI50 (IGROV-1) | GI50 (CAKI-1) | GI50 (RPMI-8226) | GI50 (NCI-H522) | GI50 (SN12C) | GI50 (U-251) | GI50 (OVCAR-8) | GI50 (UO-31) | GI50 (MOLT-4) | GI50 (PC-3) | GI50 (NCI/ADR-RES) | GI50 (MCF7) | GI50 (BT-549) | GI50 (786-0) | GI50 (T47D) |
| --- | --- | --- | --- | --- | --- | --- | --- | --- | --- | --- | --- | --- | --- | --- | --- | --- | --- | --- | --- | --- |
| CC(=O)OCC1=C(COC(C)=O)C(=O)c2c(O)ccc(O)c2C1=O | 10.4 µM | 2.54 µM (inactive) | 17.4 µM (inactive) | 2.38 µM (inactive) | 3.21 µM (inactive) | 16 µM (inactive) | 5.66 µM (inactive) | 3.2 µM (inactive) | 1.55 µM (inactive) | 10.4 µM (inactive) | 13.1 µM (inactive) | 10.2 µM (inactive) | 15.4 µM (inactive) | 1.37 µM (inactive) |  |  |  |  |  |  |
| CCn1cc(C(c2ccc(Cl)cc2)n2ccnc2)c2cc(Br)ccc21 (stereo unspecified) | 12.2 µM | 4.89 µM (inactive) | 10.4 µM (inactive) | 11.6 µM (inactive) |  | 9.31 µM (inactive) | 13.7 µM (inactive) | 3.48 µM (inactive) |  | 22.8 µM (inactive) | 14.7 µM (inactive) | 10.8 µM (inactive) | 6.9 µM (inactive) | 1.85 µM (inactive) | 9.55 µM (inactive) | 12.6 µM (inactive) | 10.1 µM (inactive) | 14.8 µM (inactive) |  |  |
| Cc1nc2ccccc2c(=O)n1/N=C(\N=N\c1cc(Cl)ccc1Cl)c1ccc(N(C)C)cc1 | > 100 µM |  | > 100 µM (inactive) | 78.3 µM (inactive) | > 100 µM (inactive) | 49.9 µM (inactive) | 34 µM (inactive) | 26.2 µM (inactive) | 25 µM (inactive) | 58.6 µM (inactive) | 38.1 µM (inactive) | 40.9 µM (inactive) | 22.9 µM (inactive) | 25.2 µM (inactive) |  |  |  |  | 73.5 µM (inactive) |  |
| CN(C)C(=S)/N=c1\ss/c(=N\S(=O)(=O)c2ccccc2)n1-c1ccccc1 | 7.28 µM | 14.7 µM (inactive) | 14.1 µM (inactive) |  | 9.95 µM (inactive) | 38 µM (inactive) | > 100 µM (inactive) | 0.344 µM (active) | 0.0855 µM (active) | 33 µM (inactive) | 27 µM (inactive) | 23.7 µM (inactive) | 22 µM (inactive) | 5.35 µM (inactive) |  |  |  |  | 30.4 µM (inactive) |  |
| O=C1C(c2ccc(C3=[N+]([O-])c4cc([N+](=O)[O-])ccc4C3=O)cc2)=[N+]([O-])c2cc([N+](=O)[O-])ccc21 | > 10 µM | > 10 µM (inactive) | > 10 µM (inactive) | > 10 µM (inactive) | > 10 µM (inactive) | > 10 µM (inactive) | > 10 µM (inactive) | > 10 µM (inactive) | > 10 µM (inactive) | > 10 µM (inactive) | > 10 µM (inactive) | > 10 µM (inactive) | > 10 µM (inactive) | > 10 µM (inactive) |  |  |  |  | 58.9 µM (inactive) |  |
| COc1ccc(C2C(N)=NCC2c2ccccn2)cc1 (stereo unspecified) |  | > 100 µM (inactive) | > 100 µM (inactive) | > 100 µM (inactive) | > 100 µM (inactive) | > 100 µM (inactive) | > 100 µM (inactive) | > 100 µM (inactive) | > 100 µM (inactive) | > 100 µM (inactive) | > 100 µM (inactive) | > 100 µM (inactive) | > 100 µM (inactive) | > 100 µM (inactive) |  |  |  |  | > 100 µM (inactive) |  |
| O=C(O)c1ccc(C2C(=O)N[C@@H]3CCC[C@H]23)cc1 (stereo partly specified) | > 100 µM |  | > 100 µM (inactive) | > 100 µM (inactive) | > 100 µM (inactive) | > 100 µM (inactive) | > 100 µM (inactive) | > 100 µM (inactive) | > 100 µM (inactive) |  | > 100 µM (inactive) | > 100 µM (inactive) | > 100 µM (inactive) | > 100 µM (inactive) |  |  |  |  | > 100 µM (inactive) |  |
| c1ccc2c(c1)[n-]n1c3ccc4nonc4c3n[n+]21 | > 100 µM | > 100 µM (inactive) | > 100 µM (inactive) | > 100 µM (inactive) | > 100 µM (inactive) | > 100 µM (inactive) | > 100 µM (inactive) | > 100 µM (inactive) | > 100 µM (inactive) | > 100 µM (inactive) | > 100 µM (inactive) | > 100 µM (inactive) | > 100 µM (inactive) | > 100 µM (inactive) | > 100 µM (inactive) | > 100 µM (inactive) | 60.5 µM (inactive) | > 100 µM (inactive) | > 100 µM (inactive) |  |
| CC12CC3(C)CC(C)(C1)CC(N=[N+]=[N-])(C2)C3 |  | > 100 µM (inactive) | > 100 µM (inactive) | > 100 µM (inactive) | > 100 µM (inactive) | > 100 µM (inactive) | > 100 µM (inactive) | > 100 µM (inactive) | > 100 µM (inactive) | > 100 µM (inactive) | > 100 µM (inactive) | > 100 µM (inactive) | > 100 µM (inactive) | > 100 µM (inactive) |  |  |  |  | > 100 µM (inactive) |  |
| CC(=O)OCC1OC(n2cc(F)c(=O)[nH]c2=O)C(N)C(OC(C)=O)C1OC(C)=O (stereo unspecified) | > 100 µM | > 100 µM (inactive) | > 100 µM (inactive) | > 100 µM (inactive) | > 100 µM (inactive) | > 100 µM (inactive) | > 100 µM (inactive) | > 100 µM (inactive) | > 100 µM (inactive) | > 100 µM (inactive) | > 100 µM (inactive) | > 100 µM (inactive) | > 100 µM (inactive) | > 100 µM (inactive) |  | > 100 µM (inactive) | > 100 µM (inactive) |  |  |  |
| OCc1nnn2c1CCC2 | > 100 µM | > 100 µM (inactive) | > 100 µM (inactive) |  | > 100 µM (inactive) | > 100 µM (inactive) |  |  | > 100 µM (inactive) | > 100 µM (inactive) | > 100 µM (inactive) | > 100 µM (inactive) | > 100 µM (inactive) | > 100 µM (inactive) |  |  |  |  |  |  |
| COC(=O)C(C(=O)C(=O)Nc1ccccc1C(C)=O)c1nc2ccc(Cl)cc2nc1O (stereo unspecified) | > 100 µM | > 100 µM (inactive) | > 100 µM (inactive) | > 100 µM (inactive) | > 100 µM (inactive) | > 100 µM (inactive) | > 100 µM (inactive) | > 100 µM (inactive) |  | > 100 µM (inactive) | > 100 µM (inactive) | > 100 µM (inactive) | 77.8 µM (inactive) | > 100 µM (inactive) |  |  |  |  | > 100 µM (inactive) |  |
| C=Cc1cc2c(cc1O)CC[C@@H]1[C@@H]2CC[C@]2(C)[C@@H](O)CC[C@@H]12 | 3.95 µM |  | 5.78 µM (inactive) | 15.4 µM (inactive) | 4.32 µM (inactive) | 8.09 µM (inactive) | 7.94 µM (inactive) |  | 4.66 µM (inactive) |  | 4.19 µM (inactive) |  | 7 µM (inactive) | 3.9 µM (inactive) | 11.6 µM (inactive) | 1.77 µM (inactive) |  |  | 4.13 µM (inactive) | 8.79 µM (inactive) |
| COc1ccc(CC/N=C2\CCC(C(=O)NCCc3ccc(OC)c(OC)c3)N2)cc1OC (stereo unspecified) | > 100 µM | > 100 µM (inactive) | > 100 µM (inactive) | > 100 µM (inactive) | > 100 µM (inactive) | > 100 µM (inactive) | > 100 µM (inactive) | > 100 µM (inactive) | > 100 µM (inactive) | > 100 µM (inactive) | > 100 µM (inactive) | > 100 µM (inactive) | > 100 µM (inactive) | > 100 µM (inactive) |  |  |  |  | > 100 µM (inactive) |  |
| Cc1[nH]c(=O)[nH]c(=O)c1/C=C/C(=O)NC(CO)C[S+]([O-])C[S+](C)[O-] (stereo unspecified) | 44.3 µM | 9.73 µM (inactive) | 24.4 µM (inactive) | 30 µM (inactive) | 38.6 µM (inactive) | 12.6 µM (inactive) | 4.93 µM (inactive) | 34.8 µM (inactive) | 9.51 µM (inactive) | 14.2 µM (inactive) | 3.8 µM (inactive) | 28.4 µM (inactive) | 23.7 µM (inactive) | 18.7 µM (inactive) |  | 24.8 µM (inactive) | 20.9 µM (inactive) |  |  |  |
| NC(=S)N/N=C1\C(=O)Nc2c(Cl)cc(Cl)cc21 | 24.8 µM | 72.1 µM (inactive) | 31.3 µM (inactive) | 20.2 µM (inactive) | 30.5 µM (inactive) | 22.5 µM (inactive) | 41.2 µM (inactive) |  |  | 19.5 µM (inactive) | 19.5 µM (inactive) | 18.1 µM (inactive) | 28.1 µM (inactive) | 14 µM (inactive) | 17.8 µM (inactive) | 17.8 µM (inactive) | 28 µM (inactive) | 21 µM (inactive) | 22.9 µM (inactive) |  |
| O=C1CSc2sc(=S)sc2S1 | > 79.3 µM | > 100 µM (inactive) | 50.8 µM (inactive) | > 100 µM (inactive) | > 100 µM (inactive) | > 100 µM (inactive) |  | 78.9 µM (inactive) | > 61.7 µM (inactive) | > 70.1 µM (inactive) | > 100 µM (inactive) | > 100 µM (inactive) | > 100 µM (inactive) | > 100 µM (inactive) |  | > 66.8 µM (inactive) | > 100 µM (inactive) |  |  |  |
| Oc1nc(-c2ccccc2)cc(-c2ccccc2O)n1 | 83.2 µM | 84.5 µM (inactive) | 83.4 µM (inactive) | > 100 µM (inactive) | > 100 µM (inactive) | > 100 µM (inactive) | 76.2 µM (inactive) | 83.9 µM (inactive) | 69.3 µM (inactive) | 95.5 µM (inactive) | 42.2 µM (inactive) | > 100 µM (inactive) | 41 µM (inactive) | 67 µM (inactive) |  |  |  |  | > 100 µM (inactive) |  |
| S=c1sc2cscc2s1 | 34 µM | 24.8 µM (inactive) | 19.5 µM (inactive) | 17.7 µM (inactive) | 20.7 µM (inactive) | 32.2 µM (inactive) | 16.8 µM (inactive) | 47.6 µM (inactive) | 19.3 µM (inactive) | 32.6 µM (inactive) | 53.2 µM (inactive) | 21.7 µM (inactive) | 19.1 µM (inactive) | 34.4 µM (inactive) |  |  |  |  | 19.8 µM (inactive) |  |
